The record followed here is patent US9340590B2 (priority 2011, dated 2016).

What all share (test): cell-based
In one assay the target is hNav1.7 (Homo sapiens, UniProt Q15858). The class given is cell-based. Conditions: Table 25; IonWorks Quattro, use; […]; read-out: IWQ Use Nav1.7. On the technique in general: The patch-clamp technique gives a direct electrical read-out from membranes.
The next assay deals with hNav1.3 (Homo sapiens, UniProt Q9NY46). Particulars: Table 25; IonWorks Quattro, use; […]; read-out: IWQ Use Nav1.3.
Chain of hNav1.3 (Q9NY46 whole entry, looked up): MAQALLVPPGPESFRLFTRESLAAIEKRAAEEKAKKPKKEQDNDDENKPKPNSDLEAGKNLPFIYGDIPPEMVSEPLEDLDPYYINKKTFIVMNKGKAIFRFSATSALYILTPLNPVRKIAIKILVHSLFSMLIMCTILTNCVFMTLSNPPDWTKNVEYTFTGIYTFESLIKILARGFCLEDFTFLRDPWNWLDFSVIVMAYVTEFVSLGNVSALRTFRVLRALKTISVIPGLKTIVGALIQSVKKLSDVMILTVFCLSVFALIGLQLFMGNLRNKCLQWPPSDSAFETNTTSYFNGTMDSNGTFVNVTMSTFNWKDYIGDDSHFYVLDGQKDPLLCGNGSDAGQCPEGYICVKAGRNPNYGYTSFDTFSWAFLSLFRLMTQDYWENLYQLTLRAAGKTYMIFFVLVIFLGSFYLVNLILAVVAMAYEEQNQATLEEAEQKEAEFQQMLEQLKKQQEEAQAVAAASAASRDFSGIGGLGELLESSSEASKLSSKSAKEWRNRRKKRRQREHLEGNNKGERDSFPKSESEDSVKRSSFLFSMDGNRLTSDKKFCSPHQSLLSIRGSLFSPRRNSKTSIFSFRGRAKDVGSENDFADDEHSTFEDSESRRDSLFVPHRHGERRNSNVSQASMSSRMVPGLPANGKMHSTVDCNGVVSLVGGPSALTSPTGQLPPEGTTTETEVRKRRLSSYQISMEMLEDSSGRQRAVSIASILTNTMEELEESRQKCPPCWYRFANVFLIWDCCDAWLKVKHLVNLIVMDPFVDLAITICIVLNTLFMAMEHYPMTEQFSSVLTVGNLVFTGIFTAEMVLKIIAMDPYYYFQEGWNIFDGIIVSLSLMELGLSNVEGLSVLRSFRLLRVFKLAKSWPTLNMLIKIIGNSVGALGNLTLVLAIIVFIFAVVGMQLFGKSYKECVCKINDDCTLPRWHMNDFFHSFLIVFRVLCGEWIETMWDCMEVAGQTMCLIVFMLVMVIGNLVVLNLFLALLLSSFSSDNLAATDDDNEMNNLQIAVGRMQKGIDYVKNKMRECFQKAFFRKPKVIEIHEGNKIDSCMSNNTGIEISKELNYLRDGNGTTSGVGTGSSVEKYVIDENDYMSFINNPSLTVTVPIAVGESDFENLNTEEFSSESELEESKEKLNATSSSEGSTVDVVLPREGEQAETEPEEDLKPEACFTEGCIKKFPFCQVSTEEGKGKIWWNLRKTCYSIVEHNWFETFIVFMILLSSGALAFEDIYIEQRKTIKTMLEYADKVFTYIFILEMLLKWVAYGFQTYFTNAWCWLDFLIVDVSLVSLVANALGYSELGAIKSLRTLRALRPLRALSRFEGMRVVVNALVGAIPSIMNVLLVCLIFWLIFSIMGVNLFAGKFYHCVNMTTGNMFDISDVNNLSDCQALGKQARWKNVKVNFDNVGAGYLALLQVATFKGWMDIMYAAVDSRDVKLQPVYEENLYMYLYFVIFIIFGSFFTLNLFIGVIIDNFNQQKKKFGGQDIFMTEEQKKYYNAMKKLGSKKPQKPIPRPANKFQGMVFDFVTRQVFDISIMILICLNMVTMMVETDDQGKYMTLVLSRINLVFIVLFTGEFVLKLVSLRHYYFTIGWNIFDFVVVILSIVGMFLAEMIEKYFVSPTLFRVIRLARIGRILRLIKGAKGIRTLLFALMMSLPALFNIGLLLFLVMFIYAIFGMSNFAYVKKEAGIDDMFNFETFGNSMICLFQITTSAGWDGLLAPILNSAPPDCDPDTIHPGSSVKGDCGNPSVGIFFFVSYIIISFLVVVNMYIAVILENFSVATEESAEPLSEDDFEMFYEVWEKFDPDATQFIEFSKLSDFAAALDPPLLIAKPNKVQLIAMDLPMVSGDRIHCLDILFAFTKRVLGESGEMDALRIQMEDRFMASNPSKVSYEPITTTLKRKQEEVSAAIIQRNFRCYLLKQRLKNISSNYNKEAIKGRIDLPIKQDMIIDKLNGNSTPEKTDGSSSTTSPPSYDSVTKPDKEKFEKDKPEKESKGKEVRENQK
Another assay deals with hNav1.5 (Homo sapiens, UniProt Q14524). Conditions: Table 25; IonWorks Quattro, use; […]; read-out: IWQ Use Nav1.5.
Chain of hNav1.5 (Q14524 whole entry, looked up): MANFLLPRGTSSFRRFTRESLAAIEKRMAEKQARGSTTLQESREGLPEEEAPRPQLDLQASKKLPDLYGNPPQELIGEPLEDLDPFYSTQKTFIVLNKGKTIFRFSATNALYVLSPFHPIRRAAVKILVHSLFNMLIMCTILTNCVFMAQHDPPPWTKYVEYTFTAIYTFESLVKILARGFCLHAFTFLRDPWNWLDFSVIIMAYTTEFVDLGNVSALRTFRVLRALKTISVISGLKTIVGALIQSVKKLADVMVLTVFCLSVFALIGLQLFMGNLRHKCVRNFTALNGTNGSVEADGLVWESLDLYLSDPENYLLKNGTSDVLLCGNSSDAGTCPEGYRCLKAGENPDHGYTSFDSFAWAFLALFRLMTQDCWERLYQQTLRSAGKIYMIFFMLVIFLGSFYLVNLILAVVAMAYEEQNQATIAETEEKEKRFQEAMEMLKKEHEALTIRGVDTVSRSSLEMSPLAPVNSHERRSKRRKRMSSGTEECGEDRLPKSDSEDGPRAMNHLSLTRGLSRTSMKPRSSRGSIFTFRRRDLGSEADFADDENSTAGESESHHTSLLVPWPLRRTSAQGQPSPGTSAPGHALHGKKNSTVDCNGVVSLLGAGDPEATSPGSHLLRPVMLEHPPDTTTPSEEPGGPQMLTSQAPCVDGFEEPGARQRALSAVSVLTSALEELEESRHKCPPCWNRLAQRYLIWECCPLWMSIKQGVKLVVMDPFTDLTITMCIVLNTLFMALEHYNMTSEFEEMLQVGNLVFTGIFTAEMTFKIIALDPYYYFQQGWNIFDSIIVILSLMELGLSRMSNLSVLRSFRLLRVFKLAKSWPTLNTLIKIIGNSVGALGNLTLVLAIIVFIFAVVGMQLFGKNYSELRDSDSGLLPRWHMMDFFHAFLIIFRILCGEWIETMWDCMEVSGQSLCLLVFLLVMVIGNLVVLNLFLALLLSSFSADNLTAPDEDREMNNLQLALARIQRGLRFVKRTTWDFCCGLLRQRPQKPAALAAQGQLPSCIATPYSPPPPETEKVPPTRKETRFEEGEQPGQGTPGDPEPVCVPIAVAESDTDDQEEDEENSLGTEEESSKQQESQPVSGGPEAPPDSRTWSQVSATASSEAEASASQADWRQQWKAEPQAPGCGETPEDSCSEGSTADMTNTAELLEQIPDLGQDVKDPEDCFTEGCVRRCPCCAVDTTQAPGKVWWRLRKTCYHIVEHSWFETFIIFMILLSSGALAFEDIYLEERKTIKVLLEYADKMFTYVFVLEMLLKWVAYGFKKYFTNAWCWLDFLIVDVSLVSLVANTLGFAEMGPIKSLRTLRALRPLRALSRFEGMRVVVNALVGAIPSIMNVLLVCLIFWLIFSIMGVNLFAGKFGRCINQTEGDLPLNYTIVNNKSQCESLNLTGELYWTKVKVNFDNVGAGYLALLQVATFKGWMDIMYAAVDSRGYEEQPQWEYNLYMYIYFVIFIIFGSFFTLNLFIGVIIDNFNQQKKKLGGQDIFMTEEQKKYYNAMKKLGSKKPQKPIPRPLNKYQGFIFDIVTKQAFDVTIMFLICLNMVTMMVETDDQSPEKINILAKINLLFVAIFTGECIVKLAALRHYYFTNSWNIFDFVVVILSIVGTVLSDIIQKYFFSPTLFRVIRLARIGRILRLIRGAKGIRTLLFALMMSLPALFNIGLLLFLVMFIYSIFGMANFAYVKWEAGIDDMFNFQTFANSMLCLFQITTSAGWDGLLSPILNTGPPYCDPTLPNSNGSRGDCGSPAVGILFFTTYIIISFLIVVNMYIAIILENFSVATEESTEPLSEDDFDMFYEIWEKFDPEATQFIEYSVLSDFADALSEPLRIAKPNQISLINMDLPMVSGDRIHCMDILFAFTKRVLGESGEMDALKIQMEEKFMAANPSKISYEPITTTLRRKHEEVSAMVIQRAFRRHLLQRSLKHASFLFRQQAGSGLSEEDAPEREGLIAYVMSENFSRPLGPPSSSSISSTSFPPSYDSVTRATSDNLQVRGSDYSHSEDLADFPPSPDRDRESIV

Positions of bridges follow the written chain, without caps; N, C: chain ends. Non-standard residues stand in square brackets, D forms with d. Residues, ends and D or L forms follow the SMILES beside them. Phe(4-I) = N[C@@H](Cc1ccc(I)cc1)C(=O)O; Cha = N[C@@H](CC1CCCCC1)C(=O)O Where only a bound is given, the exact number is not on record here.

With `CC[C@H](C)[C@@H]1NC(=O)[C@@H]2CSSC[C@@H]3NC(=O)[C@H](C(C)C)NC(=O)[C@H](CC(C)C)NC(=O)[C@H](CC(N)=O)NC(=O)[C@@H]4CCCN4C(=O)[C@H](CCCNC(=N)N)NC(=O)[C@H](CSSC[C@H](NC(=O)[C@@H](N)CC(=O)O)C(=O)N[C@@H](CC(C)C)C(=O)NCC(=O)N[C@@H](Cc4ccccc4)C(=O)N[C@@H](CCSC)C(=O)N[C@@H](CCCNC(=N)N)C(=O)N[C@@H](CCCCN)C(=O)N2)NC(=O)[C@H](CSSC[C@@H](C(=O)N[C@@H](CCCCN)C(=O)N[C@@H](CC2CCCCC2)C(=O)N[C@H](C(=O)N[C@@H](Cc2ccccc2)C(N)=O)C(C)C)NC(=O)[C@H](Cc2c[nH]c4ccccc24)NC(=O)[C@H](CCCCN)NC(=O)[C@H](Cc2c[nH]cn2)NC(=O)[C@H]([C@@H](C)O)NC(=O)[C@H](CCCNC(=N)N)NC(=O)[C@H](CO)NC3=O)NC(=O)[C@H](CCCCN)NC(=O)[C@H](CC(=O)O)NC(=O)[C@H](CC(N)=O)NC(=O)[C@H](CC(=O)O)NC(=O)[C@@H]2CCCN2C1=O` [compound 375] (H-DCLGFMRKCIPDNDKCCRPNLVCSRTHKWCK[Cha]VF-NH2; disulfide 2-17, 9-23, 16-30), the IC50 on hNav1.7 stood at 50 nM; on hNav1.3, 20 nM; on hNav1.5 it was 8880 nM.

With `CC[C@H](C)[C@@H]1NC(=O)[C@@H]2CSSC[C@@H]3NC(=O)[C@H](C(C)C)NC(=O)[C@H](CC(C)C)NC(=O)[C@H](CC(N)=O)NC(=O)[C@@H]4CCCN4C(=O)[C@H](CCCNC(=N)N)NC(=O)[C@H](CSSC[C@H](NC(=O)[C@@H](N)CC(=O)O)C(=O)N[C@@H](CC(C)C)C(=O)NCC(=O)N[C@@H](Cc4ccccc4)C(=O)N[C@@H](CCSC)C(=O)N[C@@H](CCCNC(=N)N)C(=O)N[C@@H](CCCCN)C(=O)N2)NC(=O)[C@H](CSSC[C@@H](C(=O)N[C@@H](CCCCN)C(=O)N[C@@H](Cc2ccccc2)C(=O)N[C@H](C(=O)N[C@@H](Cc2ccccc2)C(N)=O)C(C)C)NC(=O)[C@H](Cc2c[nH]c4ccccc24)NC(=O)[C@H](CCCCN)NC(=O)[C@H](Cc2c[nH]cn2)NC(=O)[C@H]([C@@H](C)O)NC(=O)[C@H](CCCNC(=N)N)NC(=O)[C@H](CO)NC3=O)NC(=O)[C@H](CCCCN)NC(=O)[C@H](CC(=O)O)NC(=O)[C@H](CC(N)=O)NC(=O)[C@H](CC(=O)O)NC(=O)[C@@H]2CCCN2C1=O` [compound 377] (H-DCLGFMRKCIPDNDKCCRPNLVCSRTHKWCKFVF-NH2; disulfide 2-17, 9-23, 16-30), the IC50 on hNav1.7 was determined as 50 nM; at hNav1.3 it was 50 nM; at hNav1.5, 6840 nM.

Consider `CC[C@H](C)[C@@H]1NC(=O)[C@@H]2CSSC[C@@H]3NC(=O)[C@H](C(C)C)NC(=O)[C@H](CC(C)C)NC(=O)[C@H](CC(N)=O)NC(=O)[C@@H]4CCCN4C(=O)[C@H](CCCNC(=N)N)NC(=O)[C@H](CSSC[C@H](NC(=O)[C@@H](N)CC(=O)O)C(=O)N[C@@H](CC(C)C)C(=O)NCC(=O)N[C@@H](Cc4ccccc4)C(=O)N[C@@H](CCSC)C(=O)N[C@@H](CCCNC(=N)N)C(=O)N[C@@H](CCCCN)C(=O)N2)NC(=O)[C@H](CSSC[C@@H](C(=O)N[C@@H](CCCCN)C(=O)NCC(=O)N[C@H](C(=O)N[C@@H](Cc2ccccc2)C(N)=O)C(C)C)NC(=O)[C@H](Cc2c[nH]c4ccccc24)NC(=O)[C@H](CCCCN)NC(=O)[C@H](Cc2c[nH]cn2)NC(=O)[C@H]([C@@H](C)O)NC(=O)[C@H](CCCNC(=N)N)NC(=O)[C@H](CO)NC3=O)NC(=O)[C@H](CCCCN)NC(=O)[C@H](CC(=O)O)NC(=O)[C@H](CC(N)=O)NC(=O)[C@H](CC(=O)O)NC(=O)[C@@H]2CCCN2C1=O` [compound 378] (H-DCLGFMRKCIPDNDKCCRPNLVCSRTHKWCKGVF-NH2; disulfide 2-17, 9-23, 16-30), for which the IC50 on hNav1.7 was determined as 710 nM; on hNav1.3 it was 620 nM; at hNav1.5 it was 11200 nM.

In the case of `CC[C@H](C)[C@@H]1NC(=O)[C@@H]2CSSC[C@@H]3NC(=O)[C@H](C(C)C)NC(=O)[C@H](CC(C)C)NC(=O)[C@H](CC(N)=O)NC(=O)[C@@H]4CCCN4C(=O)[C@H](CCCNC(=N)N)NC(=O)[C@H](CSSC[C@H](NC(=O)[C@@H](N)CC(=O)O)C(=O)N[C@@H](CC(C)C)C(=O)NCC(=O)N[C@@H](Cc4ccccc4)C(=O)N[C@@H](CCSC)C(=O)N[C@@H](CCCNC(=N)N)C(=O)N[C@@H](CCCCN)C(=O)N2)NC(=O)[C@H](CSSC[C@@H](C(=O)N[C@@H](CCCCN)C(=O)N[C@@H](CC(N)=O)C(=O)N[C@H](C(=O)N[C@@H](Cc2ccccc2)C(N)=O)C(C)C)NC(=O)[C@H](Cc2c[nH]c4ccccc24)NC(=O)[C@H](CCCCN)NC(=O)[C@H](Cc2c[nH]cn2)NC(=O)[C@H]([C@@H](C)O)NC(=O)[C@H](CCCNC(=N)N)NC(=O)[C@H](CO)NC3=O)NC(=O)[C@H](CCCCN)NC(=O)[C@H](CC(=O)O)NC(=O)[C@H](CC(N)=O)NC(=O)[C@H](CC(=O)O)NC(=O)[C@@H]2CCCN2C1=O` [compound 379] (H-DCLGFMRKCIPDNDKCCRPNLVCSRTHKWCKNVF-NH2; disulfide 2-17, 9-23, 16-30), the IC50 on hNav1.7 came to 4860 nM; on hNav1.3, 6850 nM; at hNav1.5, 10600 nM.

Turning to `CC[C@H](C)[C@@H]1NC(=O)[C@@H]2CSSC[C@@H]3NC(=O)[C@H](C(C)C)NC(=O)[C@H](CC(C)C)NC(=O)[C@H](CC(N)=O)NC(=O)[C@@H]4CCCN4C(=O)[C@H](CCCNC(=N)N)NC(=O)[C@H](CSSC[C@H](NC(=O)[C@@H](N)CC(=O)O)C(=O)N[C@@H](CC(C)C)C(=O)NCC(=O)N[C@@H](Cc4ccccc4)C(=O)N[C@@H](CCSC)C(=O)N[C@@H](CCCNC(=N)N)C(=O)N[C@@H](CCCCN)C(=O)N2)NC(=O)[C@H](CSSC[C@@H](C(=O)N[C@@H](CCCCN)C(=O)N[C@@H](Cc2c[nH]cn2)C(=O)N[C@H](C(=O)N[C@@H](Cc2ccccc2)C(N)=O)C(C)C)NC(=O)[C@H](Cc2c[nH]c4ccccc24)NC(=O)[C@H](CCCCN)NC(=O)[C@H](Cc2c[nH]cn2)NC(=O)[C@H]([C@@H](C)O)NC(=O)[C@H](CCCNC(=N)N)NC(=O)[C@H](CO)NC3=O)NC(=O)[C@H](CCCCN)NC(=O)[C@H](CC(=O)O)NC(=O)[C@H](CC(N)=O)NC(=O)[C@H](CC(=O)O)NC(=O)[C@@H]2CCCN2C1=O` [compound 380] (H-DCLGFMRKCIPDNDKCCRPNLVCSRTHKWCKHVF-NH2; disulfide 2-17, 9-23, 16-30), the IC50 on hNav1.7 worked out at 600 nM; at hNav1.3 it was 750 nM; at hNav1.5 it was 10200 nM.

Regarding `CC[C@H](C)[C@@H]1NC(=O)[C@@H]2CSSC[C@@H]3NC(=O)[C@H](C(C)C)NC(=O)[C@H](CC(C)C)NC(=O)[C@H](CC(N)=O)NC(=O)[C@@H]4CCCN4C(=O)[C@H](CCCNC(=N)N)NC(=O)[C@H](CSSC[C@H](NC(=O)[C@@H](N)CC(=O)O)C(=O)N[C@@H](CC(C)C)C(=O)NCC(=O)N[C@@H](Cc4ccccc4)C(=O)N[C@@H](CCSC)C(=O)N[C@@H](CCCNC(=N)N)C(=O)N[C@@H](CCCCN)C(=O)N2)NC(=O)[C@H](CSSC[C@@H](C(=O)N[C@@H](CCCCN)C(=O)N[C@@H](Cc2ccc(I)cc2)C(=O)N[C@H](C(=O)N[C@@H](Cc2ccccc2)C(N)=O)C(C)C)NC(=O)[C@H](Cc2c[nH]c4ccccc24)NC(=O)[C@H](CCCCN)NC(=O)[C@H](Cc2c[nH]cn2)NC(=O)[C@H]([C@@H](C)O)NC(=O)[C@H](CCCNC(=N)N)NC(=O)[C@H](CO)NC3=O)NC(=O)[C@H](CCCCN)NC(=O)[C@H](CC(=O)O)NC(=O)[C@H](CC(N)=O)NC(=O)[C@H](CC(=O)O)NC(=O)[C@@H]2CCCN2C1=O` [compound 381] (H-DCLGFMRKCIPDNDKCCRPNLVCSRTHKWCK[Phe(4-I)]VF-NH2; disulfide 2-17, 9-23, 16-30), the IC50 came to 30 nM at hNav1.7, 10 nM on hNav1.3 and 4440 nM at hNav1.5.

Regarding `CC[C@H](C)[C@@H]1NC(=O)[C@@H]2CSSC[C@@H]3NC(=O)[C@H](C(C)C)NC(=O)[C@H](CC(C)C)NC(=O)[C@H](CC(N)=O)NC(=O)[C@@H]4CCCN4C(=O)[C@H](CCCNC(=N)N)NC(=O)[C@H](CSSC[C@H](NC(=O)[C@@H](N)CC(=O)O)C(=O)N[C@@H](CC(C)C)C(=O)NCC(=O)N[C@@H](Cc4ccccc4)C(=O)N[C@@H](CCSC)C(=O)N[C@@H](CCCNC(=N)N)C(=O)N[C@@H](CCCCN)C(=O)N2)NC(=O)[C@H](CSSC[C@@H](C(=O)N[C@@H](CCCCN)C(=O)N[C@@H](CO)C(=O)N[C@H](C(=O)N[C@@H](Cc2ccccc2)C(N)=O)C(C)C)NC(=O)[C@H](Cc2c[nH]c4ccccc24)NC(=O)[C@H](CCCCN)NC(=O)[C@H](Cc2c[nH]cn2)NC(=O)[C@H]([C@@H](C)O)NC(=O)[C@H](CCCNC(=N)N)NC(=O)[C@H](CO)NC3=O)NC(=O)[C@H](CCCCN)NC(=O)[C@H](CC(=O)O)NC(=O)[C@H](CC(N)=O)NC(=O)[C@H](CC(=O)O)NC(=O)[C@@H]2CCCN2C1=O` [compound 382] (H-DCLGFMRKCIPDNDKCCRPNLVCSRTHKWCKSVF-NH2; disulfide 2-17, 9-23, 16-30), the IC50 at hNav1.7 is 3950 nM; at hNav1.3 it was 1470 nM; at hNav1.5, greater than 5000 nM.

As for `CC[C@H](C)[C@@H]1NC(=O)[C@@H]2CSSC[C@@H]3NC(=O)[C@H](C(C)C)NC(=O)[C@H](CC(C)C)NC(=O)[C@H](CC(N)=O)NC(=O)[C@@H]4CCCN4C(=O)[C@H](CCCNC(=N)N)NC(=O)[C@H](CSSC[C@H](NC(=O)[C@@H](N)CC(=O)O)C(=O)N[C@@H](CC(C)C)C(=O)NCC(=O)N[C@@H](Cc4ccccc4)C(=O)N[C@@H](CCSC)C(=O)N[C@@H](CCCNC(=N)N)C(=O)N[C@@H](CCCCN)C(=O)N2)NC(=O)[C@H](CSSC[C@@H](C(=O)N[C@@H](CCCCN)C(=O)N2CCC[C@H]2C(=O)N[C@H](C(=O)N[C@@H](Cc2ccccc2)C(N)=O)C(C)C)NC(=O)[C@H](Cc2c[nH]c4ccccc24)NC(=O)[C@H](CCCCN)NC(=O)[C@H](Cc2c[nH]cn2)NC(=O)[C@H]([C@@H](C)O)NC(=O)[C@H](CCCNC(=N)N)NC(=O)[C@H](CO)NC3=O)NC(=O)[C@H](CCCCN)NC(=O)[C@H](CC(=O)O)NC(=O)[C@H](CC(N)=O)NC(=O)[C@H](CC(=O)O)NC(=O)[C@@H]2CCCN2C1=O` [compound 383] (H-DCLGFMRKCIPDNDKCCRPNLVCSRTHKWCKPVF-NH2; disulfide 2-17, 9-23, 16-30), the IC50 on hNav1.7, on hNav1.3 and at hNav1.5 was greater than 5000 nM each time.
